Test results published in patent US20180353512A1, “COMBINATION THERAPIES FOR TREATING B-CELL MALIGNANCIES” (GILEAD SCIENCES, INC., priority 2015, published 2018).
Where two headings read alike, the source gives them in different places.

How the values were obtained:
c-MYC = assay: Immunohistochemistry of TMD8 xenograft tumor samples; format: in vivo, mice; settings: PI3Kδ inhibitor 5 mg/kg, Compound B 10 mg/kg; data not shown
Procedure: (§1) Paraffin sections of the tumor samples were prepared for immunohistochemistry. Slides were prepared with EZ Prep (Ventana Medical Systems) CC1 (Ventana Medical Systems) and rinsed with Reaction Buffer (Ventana Medical Systems). Slides were incubated with ChromoMap Inhibitor (Venatana Medical Systems) and rinsed a Reaction Buffer rinse before incubating with anti-pS6 (S235/236) rabbit monoclonal antibody (Cell Signaling Technology) at 0.02 ug/mL or anti-c-MYC rabbit monoclonal antibody (Abcam Inc.) at 0.3 ug/mL. After 1 hour at room temperature, the slides were incubated sequentially with Anti-Rabbit HQ (Ventana Medical Systems), Anti-HQ HRP (Ventana Medical Systems) hydrogen peroxide CM (Ventana Medical Systems), Copper CM (Ventana Medical Systems), and Hematoxylin II. Slides were imaged using the Leica AT2 digital slide scanner (Leica Microsystems Inc.) and documented in Digital Image Hub (DIH-SlidePath).

p-S6 S235/236 = assay: as above; format: in vivo, mice; settings: PI3Kδ inhibitor 5 mg/kg, Compound B 10 mg/kg; data not shown
Procedure: as §1

TMD8 tumor xenograft = TMD8 tumor xenograft model, tumor volume; format: in vivo, mice; parameters: tumor growth: dose or concentration left out as unconfirmed; settings: oral gavage
Procedure: A TMD8 tumor xenograft model was generated by introducing cultured TMD8 cells into irradiated mice. All animal experiments were performed in accordance with the Institutional Animal Care and Use Committee (IACUC) protocol. Male CB17-SCID mice were treated with 1.44 Gy whole body irradiation using a ^60Co radiation source, and seventy-four hours later, 1×10^7 TMD8 cells were inoculated subcutaneously into the right flank. When tumors reached a mean volume of 200 mm^3, mice were randomly assigned to groups (n=13). […] All test compounds were formulated in 5% (v/v) N-Methyl-2-pyrrolidone (NMP)/55% (v/v) Polyethylene Glycol 300 (PEG) 300/40% (v/v) Water/1% (w/v) Vitamin E D-α-Tocopherol Polyethylene Glycol 1000 Succinate (TPGS). Tumor volume was calculated using the following formula: (length×width^2)/2, where length is the longest diameter across the tumor and width is the corresponding perpendicular diameter. Tumor growth inhibition rate was calculated using the following formula: 1−(tumor sizeend of compound treatment−tumor sizebeginning of compound treatment/tumor sizeend of vehicle treatment−tumor sizebeginning of vehicle treatment)×100.
The Analysis of Variance model for repeated measure was used to determine the treatment effect on tumor growth. The model fitted on tumor volume included factors of treatment, time, and their interaction. […]

[1] = system: TMD-8 cells with the BTK (C481F) mutation; assay: 96-hour Cell Titer Glo viability assay, Ibrutinib-resistant TMD-8; parameters: Emax: dose or concentration left out as unconfirmed; settings: for sensitivity in cell viability assay: TMD8^BTK-C481F, 96 h
p-AKT S473 = assay: Western Blot / Peggy Sue in TMD8^R cells (Example 7); format: cell-based; settings: idelalisib 420 nM, Compound B 320 nM
Procedure: (§2) Idelalisib-resistant (TMD8^R) cell line and passage-matched Idelalisib-sensitive (TMD8^S) cell line were generated according to the procedure described in Example 5 above. To characterize the resistant cells, cell viability assays, RNASeq of multidrug resistance (MDR) family of ABC transporter genes (N=33), apoptosis assays, and phosphoprotein analysis were performed. Cell viability was measured using CellTiter-Glo, as described in Example 1A above. Western blot and protein level analysis were performed after treatment with 420 nM idelalisib, 320 nM Compound B and combination thereof, using Peggy Sue (ProteinSimple) automated Western Blot system. Protein concentration (pg/μL) was quantitated using recombinant protein standards. Normalized AUC were determined for each of the treatment groups, normalized to actin. Apoptosis was assessed by propidium iodide and Annexin V/FITC staining and measured by flow cytometry, as described in Example 1A above. Western Blot with anti-p-AKT (S473) antibody and Peggy Sue were used to determine the phosphorylation state of downstream signaling components.

p-BTK = assay: as above; format: cell-based; settings: idelalisib 420 nM, Compound B 320 nM
Procedure: as §2

[2] = system: A20 mutant (TNFAIP3 Q143*) TMD-8 cells; assay: 96-hour Cell Titer Glo viability assay, Ibrutinib-resistant TMD-8; settings: for EC50: Homo sapiens, TMD8, read-out: EC50, cell viability; for sensitivity in cell viability assay: TMD8^A20-Q143*, 96 h
[3] = system: TMD8^S (DMSO passage matched, idelalisib-sensitive line); assay: CellTiter-Glo viability assay at 96 h; format: cell-based; settings: for cell growth: FIG. 23A
Procedure: (§3) Growth inhibition to Idelalisib or other inhibitors was assessed using CellTiter-Glo viability assay at 96 h. […] Cell lines were analyzed by whole exome sequencing, RNASeq, and phosphoproteomics. Protein expression was measured using Simple Western and SDS/PAGE and western blot. Caspase 3/7 was measured using Caspase-Glo 3/7 assay; apoptosis was measured with Annexin V assay and propidium iodide by flow cytometry.
(§4) Cell viability EC50 was determined using a sigmoidal dose-response (variable slope) curve generated from quadruplicate samples. Statistical significance was determined using the student's t-test for cell viability and two-tailed paired t-test for apoptosis experiments in Prism (GraphPad).
as §2

TMD8^R cells = assay: Apoptosis, Annexin V assay and propidium iodide by flow cytometry; format: cell-based; settings: Annexin V at 48 h, Idelalisib=1 μM
Procedure: as §3

TMD8 = assay: CellTiter-Glo viability assay at 96 h (Example 5); format: cell-based; settings: Homo sapiens
Procedure: as §3, §4

FSCCL^S = assay: CellTiter Glo viability assay after 96 h; format: cell-based
Procedure: Idelalisib resistance was established by continuous passaging of a clonal isolate of WSU-FSCCL in the presence of 1 μM idelalisib; clonal isolates from a passage-matched line (FSCCL^S) and idelalisib-resistant line (FSCCL^R) were generated through 2 rounds of single-cell-limiting dilution. Growth inhibition to idelalisib or other inhibitors was performed after 96 h using CellTiter Glo viability assay. Characterization of mutations and gene expression were identified by whole exome sequencing and RNA-Seq, respectively. Whole cell lysates were analyzed by western blots.

[4] = cited from earlier work

Structure (SMILES): CC#CC(=O)N1CC[C@@H](n2c(=O)n(-c3ccc(Oc4ccccc4)cc3)c3c(N)ncnc32)C1 [Compound B, 6-amino-9-[(3R)-1-(2-butynoyl)-3-pyrrolidinyl]-7-(4-phenoxyphenyl)-7,9-dihydro-8H-purin-8-one]
- c-MYC signal, IHC (c-MYC): did not reduce
- p-S6 signal, IHC (p-S6 S235/236): did not reduce
- tumor growth inhibition (TMD8 tumor xenograft; 10 mg/kg BID, P<0.05): 75%
- tumor growth (TMD8 tumor xenograft): did not inhibit tumor growth
- sensitivity in cell viability assay [1]: resistant
- p-AKT (p-AKT S473): not
- p-BTK (p-BTK): inhibited
- EC50 [2]: > 10000 nM
- sensitivity in cell viability assay [2]: resistant
- cell growth [3]: inhibited cell growth
- EC50 ([3]; unit inferred, read-out: EC50, cell viability): 1.2 nM

Structure (SMILES): CCC(Nc1ncnc2[nH]cnc12)c1nc2cccc(F)c2c(=O)n1-c1ccccc1 (centres unmarked) [Idelalisib, 2-(1-((9H-Purin-6-yl)amino)propyl)-5-fluoro-3-phenylquinazolin-4(3H)-one]
- apoptosis (TMD8^R cells; GSK-2334470=1 μM, vehicle control 22%): 24%
- apoptosis (TMD8^R cells; MK-2206=1 μM, vehicle control 24%): 21%
- EC50 (TMD8): 42 nM
- Emax ([1]; Homo sapiens, TMD8, read-out: Emax, growth inhibition): 14%
- sensitivity in cell viability assay [1]: resistant
- p-AKT (p-AKT S473): inhibited
- p-BTK (p-BTK): not
- EC50 [2]: ≥ 4300 nM
- sensitivity in cell viability assay [2]: resistant
- EC50 ([3]; Example 7, read-out: EC50, cell viability): 220 nM
- cell growth [3]: inhibited cell growth
- inhibition at 1 µM ([3]; at 1 μM, read-out: Growth inhibition): 92%
- EC50 (FSCCL^S; FIG. 16, read-out: EC50, cell viability): 100 nM
- EC50 (FSCCL^S; PI3KCA WT, Table 13, single agent, read-out: EC50): 110 nM
- EC50 (FSCCL^S; Table 14, single agent, read-out: EC50): 213 nM
- EC50 (FSCCL^S; Table 15, single agent, read-out: EC50): 213 nM
- clinical Cmin [4]: 103 nM
- Cmax ([4]; clinical): 591 nM
